Assay results published in BindingDB's records for doi:10.1016/S0014-827X(03)00113-7 (Universit&Aagrove, 2003).

Legend:
[1] = molecular target: Muscarinic acetylcholine receptor M3 (Homo sapiens, UniProt P20309)
[2] = molecular target: T1, Muscarinic acetylcholine receptor M2 (Homo sapiens, UniProt P08172)
T1 sequence (P08172 whole entry): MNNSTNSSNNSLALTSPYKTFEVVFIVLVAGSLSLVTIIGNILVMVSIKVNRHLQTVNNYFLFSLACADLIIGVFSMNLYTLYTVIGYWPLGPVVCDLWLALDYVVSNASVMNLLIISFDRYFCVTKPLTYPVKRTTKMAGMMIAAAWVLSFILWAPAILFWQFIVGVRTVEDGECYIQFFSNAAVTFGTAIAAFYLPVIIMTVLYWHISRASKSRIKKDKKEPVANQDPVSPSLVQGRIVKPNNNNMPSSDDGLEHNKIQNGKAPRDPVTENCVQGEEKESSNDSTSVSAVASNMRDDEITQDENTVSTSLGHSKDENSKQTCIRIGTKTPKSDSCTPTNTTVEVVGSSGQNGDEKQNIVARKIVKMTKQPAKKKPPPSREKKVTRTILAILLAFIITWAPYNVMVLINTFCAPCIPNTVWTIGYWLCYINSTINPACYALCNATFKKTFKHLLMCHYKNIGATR

[3] = molecular target: T2, Muscarinic acetylcholine receptor M5 (Homo sapiens, UniProt P08912)
T2 sequence (P08912 whole entry): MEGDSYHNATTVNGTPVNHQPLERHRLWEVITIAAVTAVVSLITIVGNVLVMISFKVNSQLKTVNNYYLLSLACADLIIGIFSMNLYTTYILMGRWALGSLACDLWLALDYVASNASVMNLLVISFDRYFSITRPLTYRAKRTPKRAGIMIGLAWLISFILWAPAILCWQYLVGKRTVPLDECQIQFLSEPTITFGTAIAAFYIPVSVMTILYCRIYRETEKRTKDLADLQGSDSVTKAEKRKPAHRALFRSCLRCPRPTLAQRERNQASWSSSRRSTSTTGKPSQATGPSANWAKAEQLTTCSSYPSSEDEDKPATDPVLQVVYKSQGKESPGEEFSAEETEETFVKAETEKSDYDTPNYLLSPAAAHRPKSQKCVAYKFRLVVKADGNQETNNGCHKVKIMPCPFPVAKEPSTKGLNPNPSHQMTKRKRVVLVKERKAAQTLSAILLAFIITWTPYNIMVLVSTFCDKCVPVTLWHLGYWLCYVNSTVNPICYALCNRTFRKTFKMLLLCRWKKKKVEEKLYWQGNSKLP

Sequence of Muscarinic acetylcholine receptor M3 (P20309 whole entry): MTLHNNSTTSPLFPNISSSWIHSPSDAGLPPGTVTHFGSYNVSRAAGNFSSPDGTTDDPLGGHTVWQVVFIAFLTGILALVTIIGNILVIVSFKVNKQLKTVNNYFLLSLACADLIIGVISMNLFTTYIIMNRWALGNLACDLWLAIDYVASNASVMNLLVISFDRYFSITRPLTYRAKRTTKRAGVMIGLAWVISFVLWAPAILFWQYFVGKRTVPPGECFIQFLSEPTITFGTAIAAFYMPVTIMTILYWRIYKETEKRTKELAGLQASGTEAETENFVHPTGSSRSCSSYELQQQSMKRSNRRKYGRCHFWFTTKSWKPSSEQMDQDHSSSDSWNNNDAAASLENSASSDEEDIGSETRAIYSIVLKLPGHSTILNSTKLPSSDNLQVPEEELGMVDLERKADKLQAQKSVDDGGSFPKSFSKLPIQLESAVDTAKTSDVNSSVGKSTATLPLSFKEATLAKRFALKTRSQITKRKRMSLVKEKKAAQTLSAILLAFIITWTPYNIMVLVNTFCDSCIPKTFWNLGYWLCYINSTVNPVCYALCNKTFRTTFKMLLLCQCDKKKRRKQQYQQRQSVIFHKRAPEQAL

Compound	Ki [1] [µM]	Ki [2] [µM]	Ki [3] [µM]
Cc1n(CC#CCN2OCCC2=O)cc[n+]1C [2-[4-(2,3-Dimethyl-1H-imidazolium-1-yl)-2-butynyl]isoxazolidin-3-one iodide]	0.0759	0.275	0.132
Cc1nccn1CC#CCOC1=NOCC1 [3-[4-(2-Methyl-1H-imidazol-1-yl)-2-butynyl]oxy-delta2-isoxazoline sesquifumarate]	0.00251	0.00363	0.00617
Cc1nccn1CC#CCOc1ccon1 [3-[4-(2-Methyl-1H-imidazol-1-yl)-2-butynyl]oxyisoxazole sesquifumarate]	0.11	0.282	0.209
Cc1n(CC#CCOC2=NOCC2)cc[n+]1C [NSC_0]	0.00631	0.0933	0.0513
Cc1n(CC#CCOc2ccon2)cc[n+]1-c1ccc(Br)cc1 [NSC_0]	0.017	0.112	0.0603
Cc1nccn1CC#CCN1OCCC1=O [NSC_0]	0.102	0.0724	0.00051
